US10227376B2, “Radiolabeled cationic steroid antimicrobials and diagnostic methods” (BRIGHAM YOUNG UNIVERSITY, priority 2014, dated 2019)

Assay: Stability of labeled compounds in human serum
Assay type: in vitro ADME
Conditions: 64Cu labeled compound, four hours, 37 degrees C., 500 rpm incubation
Procedure: Stability of the labeled CSA-150 and CSA-151 compounds of Example 1 was measured. The labeled compounds were placed in human serum for four hours at 37 degrees C. at 500 rpm incubation.

## CCCCCCCCN(CCCC(C)[C@H]1CC[C@H]2[C@@H]3[C@H](OCCCNC(C)=O)C[C@@H]4C[C@H](OCCCNC(C)=O)CC[C@]4(C)[C@H]3C[C@H](OCCCNC(C)=O)[C@]12C)C(=O)NCCOCCOCCOCCOCCNC(=O)CN1CCN(CC(=O)O)CCN(CC(=O)O)CC1 (stereo partly shown) (64Cu complex, metal not drawn) [CSA-151]
  Stability of the labeled compound (% stable): 100%
